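Method: 48-hour compound exposure of cells in 96-well plates, five concentrations, linear interpolation of endpoints. The concentration for 50% growth inhibition is given as GI50. TGI marks complete inhibition of growth.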
Assays:
Test in all cases: NCI tumour cell line growth inhibition, 48 h
NCI-H23 lung = tested on: NCI-H23 lung
SNB-75 CNS = tested on: SNB-75 CNS
PC-3 prostate = tested on: PC-3 prostate
UACC-62 melanoma = tested on: UACC-62 melanoma
HCT-116 colon = tested on: HCT-116 colon
NCI-H226 lung = tested on: NCI-H226 lung
SK-OV-3 ovarian = tested on: SK-OV-3 ovarian
M14 melanoma = tested on: M14 melanoma
HS 578T breast = tested on: HS 578T breast
SF-295 CNS = tested on: SF-295 CNS
DU-145 prostate = tested on: DU-145 prostate
MOLT-4 leukemia = tested on: MOLT-4 leukemia
ACHN renal = tested on: ACHN renal
IGROV1 ovarian = tested on: IGROV1 ovarian
HOP-92 NSCLC = tested on: HOP-92 NSCLC
OVCAR-8 ovarian = tested on: OVCAR-8 ovarian
MCF7 breast = tested on: MCF7 breast
HL-60(TB) leukemia = tested on: HL-60(TB) leukemia
OVCAR-5 ovarian = tested on: OVCAR-5 ovarian
A549 NSCLC = tested on: A549 NSCLC
HCC-2998 colon = tested on: HCC-2998 colon
SR leukemia = tested on: SR leukemia
CAKI-1 renal = tested on: CAKI-1 renal
U251 CNS = tested on: U251 CNS
HT29 colon = tested on: HT29 colon
K-562 leukemia = tested on: K-562 leukemia
HCT-15 colon = tested on: HCT-15 colon
SK-MEL-5 melanoma = tested on: SK-MEL-5 melanoma
OVCAR-4 ovarian = tested on: OVCAR-4 ovarian
SF-268 CNS = tested on: SF-268 CNS
SW-620 colon = tested on: SW-620 colon
SF-539 CNS = tested on: SF-539 CNS
MDA-MB-231 breast = tested on: MDA-MB-231 breast
NCI-H460 lung = tested on: NCI-H460 lung
SN12C renal = tested on: SN12C renal
KM12 colon = tested on: KM12 colon
HOP-62 NSCLC = tested on: HOP-62 NSCLC
SK-MEL-2 melanoma = tested on: SK-MEL-2 melanoma
BT-549 breast = tested on: BT-549 breast
OVCAR-3 ovarian = tested on: OVCAR-3 ovarian
RXF 393 renal = tested on: RXF 393 renal
A498 renal = tested on: A498 renal
SNB-19 CNS = tested on: SNB-19 CNS
NCI/ADR-RES ovarian = tested on: NCI/ADR-RES ovarian
UACC-257 melanoma = tested on: UACC-257 melanoma
UO-31 renal = tested on: UO-31 renal
NCI-H522 lung = tested on: NCI-H522 lung
RPMI-8226 leukemia = tested on: RPMI-8226 leukemia
786-0 renal = tested on: 786-0 renal
MALME-3M melanoma = tested on: MALME-3M melanoma
COLO 205 colon = tested on: COLO 205 colon
T-47D breast = tested on: T-47D breast
MDA-MB-435 = tested on: MDA-MB-435
TK-10 renal = tested on: TK-10 renal
SK-MEL-28 melanoma = tested on: SK-MEL-28 melanoma

**Q.** COc1c(Cl)ccc2c(-c3nc4cc(Cl)c(F)cc4s3)cc(=O)oc12 was tested. Which GI50 (NCI-H23 lung) did it give?
**A.** 3.25 µM

**Q.** And the TGI (NCI-H23 lung)?
**A.** > 73.7 µM

**Q.** And the GI50 (SNB-75 CNS)?
**A.** 1.56 µM

**Q.** What about the TGI (SNB-75 CNS) of the same molecule?
**A.** 3.28 µM

**Q.** What about the GI50 (PC-3 prostate) of the same molecule?
**A.** 4.46 µM

**Q.** And the TGI (PC-3 prostate)?
**A.** 15.5 µM

**Q.** What about the GI50 (UACC-62 melanoma) of the same molecule?
**A.** 16.5 µM

**Q.** And the TGI (UACC-62 melanoma)?
**A.** 53.7 µM

**Q.** And the GI50 (HCT-116 colon)?
**A.** 14.1 µM

**Q.** And the TGI (HCT-116 colon)?
**A.** > 61.6 µM

**Q.** And the GI50 (NCI-H226 lung)?
**A.** 11.7 µM

**Q.** And the TGI (NCI-H226 lung)?
**A.** > 69.3 µM

**Q.** What about the GI50 (SK-OV-3 ovarian) of the same molecule?
**A.** 7.03 µM

**Q.** And the TGI (SK-OV-3 ovarian)?
**A.** 19.9 µM

**Q.** What about the GI50 (M14 melanoma) of the same molecule?
**A.** 26.7 µM

**Q.** And the TGI (M14 melanoma)?
**A.** > 100 µM

**Q.** What about the GI50 (HS 578T breast) of the same molecule?
**A.** 26.8 µM

**Q.** And the TGI (HS 578T breast)?
**A.** > 100 µM

**Q.** What about the GI50 (SF-295 CNS) of the same molecule?
**A.** 10.4 µM

**Q.** What about the TGI (SF-295 CNS) of the same molecule?
**A.** 52 µM

**Q.** What about the GI50 (DU-145 prostate) of the same molecule?
**A.** 13.9 µM

**Q.** What about the TGI (DU-145 prostate) of the same molecule?
**A.** 39.9 µM

**Q.** And the GI50 (MOLT-4 leukemia)?
**A.** 4.1 µM

**Q.** And the TGI (MOLT-4 leukemia)?
**A.** > 100 µM

**Q.** What about the GI50 (ACHN renal) of the same molecule?
**A.** 4 µM

**Q.** What about the TGI (ACHN renal) of the same molecule?
**A.** 17.2 µM

**Q.** And the GI50 (IGROV1 ovarian)?
**A.** 1.68 µM

**Q.** And the TGI (IGROV1 ovarian)?
**A.** 3.97 µM

**Q.** What about the GI50 (HOP-92 NSCLC) of the same molecule?
**A.** 1.77 µM

**Q.** What about the TGI (HOP-92 NSCLC) of the same molecule?
**A.** 4.07 µM

**Q.** What about the GI50 (OVCAR-8 ovarian) of the same molecule?
**A.** 11.2 µM

**Q.** And the TGI (OVCAR-8 ovarian)?
**A.** > 100 µM

**Q.** What about the GI50 (MCF7 breast) of the same molecule?
**A.** 9.13 µM

**Q.** And the TGI (MCF7 breast)?
**A.** > 79 µM

**Q.** What about the GI50 (HL-60(TB) leukemia) of the same molecule?
**A.** 2.44 µM

**Q.** And the TGI (HL-60(TB) leukemia)?
**A.** 5.39 µM

**Q.** And the GI50 (OVCAR-5 ovarian)?
**A.** 15.3 µM

**Q.** What about the TGI (OVCAR-5 ovarian) of the same molecule?
**A.** > 53.3 µM

**Q.** And the GI50 (A549 NSCLC)?
**A.** 17.9 µM

**Q.** What about the TGI (A549 NSCLC) of the same molecule?
**A.** > 100 µM

**Q.** What about the GI50 (HCC-2998 colon) of the same molecule?
**A.** 38.5 µM

**Q.** And the TGI (HCC-2998 colon)?
**A.** > 100 µM

**Q.** What about the GI50 (SR leukemia) of the same molecule?
**A.** 2.2 µM

**Q.** What about the TGI (SR leukemia) of the same molecule?
**A.** 8.23 µM

**Q.** What about the GI50 (CAKI-1 renal) of the same molecule?
**A.** 1.98 µM

**Q.** And the GI50 (U251 CNS)?
**A.** 7.57 µM

**Q.** What about the TGI (U251 CNS) of the same molecule?
**A.** 44.7 µM

**Q.** What about the GI50 (HT29 colon) of the same molecule?
**A.** 2.76 µM

**Q.** And the TGI (HT29 colon)?
**A.** 6.54 µM

**Q.** What about the GI50 (K-562 leukemia) of the same molecule?
**A.** 5.42 µM

**Q.** And the TGI (K-562 leukemia)?
**A.** > 100 µM

**Q.** And the GI50 (HCT-15 colon)?
**A.** 11.7 µM

**Q.** What about the TGI (HCT-15 colon) of the same molecule?
**A.** 51 µM

**Q.** And the GI50 (SK-MEL-5 melanoma)?
**A.** 26.5 µM

**Q.** What about the TGI (SK-MEL-5 melanoma) of the same molecule?
**A.** > 88.4 µM

**Q.** And the GI50 (OVCAR-4 ovarian)?
**A.** 12.9 µM

**Q.** And the TGI (OVCAR-4 ovarian)?
**A.** 70.6 µM

**Q.** What about the GI50 (SF-268 CNS) of the same molecule?
**A.** 2.93 µM

**Q.** What about the TGI (SF-268 CNS) of the same molecule?
**A.** 8.89 µM

**Q.** And the GI50 (SW-620 colon)?
**A.** 10.3 µM

**Q.** What about the TGI (SW-620 colon) of the same molecule?
**A.** > 100 µM

**Q.** And the GI50 (SF-539 CNS)?
**A.** 1.77 µM

**Q.** And the TGI (SF-539 CNS)?
**A.** 3.36 µM

**Q.** What about the GI50 (MDA-MB-231 breast) of the same molecule?
**A.** 2.84 µM

**Q.** And the TGI (MDA-MB-231 breast)?
**A.** 11.2 µM

**Q.** What about the GI50 (NCI-H460 lung) of the same molecule?
**A.** 33.2 µM

**Q.** What about the TGI (NCI-H460 lung) of the same molecule?
**A.** > 100 µM

**Q.** What about the GI50 (SN12C renal) of the same molecule?
**A.** 23.2 µM

**Q.** And the TGI (SN12C renal)?
**A.** > 90.3 µM

**Q.** What about the GI50 (KM12 colon) of the same molecule?
**A.** 4.06 µM

**Q.** And the TGI (KM12 colon)?
**A.** 22.1 µM

**Q.** And the GI50 (HOP-62 NSCLC)?
**A.** 6.26 µM

**Q.** What about the TGI (HOP-62 NSCLC) of the same molecule?
**A.** 20.7 µM

**Q.** And the GI50 (SK-MEL-2 melanoma)?
**A.** 21.4 µM

**Q.** What about the TGI (SK-MEL-2 melanoma) of the same molecule?
**A.** 87.9 µM

**Q.** What about the GI50 (BT-549 breast) of the same molecule?
**A.** 7.58 µM

**Q.** And the TGI (BT-549 breast)?
**A.** 37.5 µM

**Q.** What about the GI50 (OVCAR-3 ovarian) of the same molecule?
**A.** 3.94 µM

**Q.** What about the TGI (OVCAR-3 ovarian) of the same molecule?
**A.** 22 µM

**Q.** And the GI50 (RXF 393 renal)?
**A.** 5.83 µM

**Q.** What about the TGI (RXF 393 renal) of the same molecule?
**A.** 17.7 µM

**Q.** And the GI50 (A498 renal)?
**A.** 17.6 µM

**Q.** What about the TGI (A498 renal) of the same molecule?
**A.** 36 µM

**Q.** What about the GI50 (SNB-19 CNS) of the same molecule?
**A.** > 43.4 µM

**Q.** And the TGI (SNB-19 CNS)?
**A.** > 72.3 µM

**Q.** What about the GI50 (NCI/ADR-RES ovarian) of the same molecule?
**A.** 8.76 µM

**Q.** And the TGI (NCI/ADR-RES ovarian)?
**A.** > 100 µM

**Q.** What about the GI50 (UACC-257 melanoma) of the same molecule?
**A.** 26.5 µM

**Q.** What about the TGI (UACC-257 melanoma) of the same molecule?
**A.** > 73.6 µM

**Q.** What about the GI50 (UO-31 renal) of the same molecule?
**A.** 1.44 µM

**Q.** What about the TGI (UO-31 renal) of the same molecule?
**A.** 3.15 µM

**Q.** And the GI50 (NCI-H522 lung)?
**A.** 1.6 µM

**Q.** What about the TGI (NCI-H522 lung) of the same molecule?
**A.** 3.38 µM

**Q.** And the GI50 (RPMI-8226 leukemia)?
**A.** 3.58 µM

**Q.** And the TGI (RPMI-8226 leukemia)?
**A.** > 38.2 µM

**Q.** What about the GI50 (786-0 renal) of the same molecule?
**A.** 2.64 µM

**Q.** And the TGI (786-0 renal)?
**A.** 5.65 µM

**Q.** What about the GI50 (MALME-3M melanoma) of the same molecule?
**A.** 2.11 µM

**Q.** And the TGI (MALME-3M melanoma)?
**A.** 4.73 µM

**Q.** What about the GI50 (COLO 205 colon) of the same molecule?
**A.** 10.1 µM

**Q.** And the TGI (COLO 205 colon)?
**A.** 38.3 µM

**Q.** What about the GI50 (T-47D breast) of the same molecule?
**A.** 13 µM

**Q.** And the TGI (T-47D breast)?
**A.** 45.5 µM

**Q.** And the GI50 (MDA-MB-435)?
**A.** 25 µM

**Q.** And the TGI (MDA-MB-435)?
**A.** > 66.1 µM

**Q.** And the GI50 (TK-10 renal)?
**A.** 17.4 µM

**Q.** And the TGI (TK-10 renal)?
**A.** 46.1 µM

**Q.** What about the GI50 (SK-MEL-28 melanoma) of the same molecule?
**A.** 26.5 µM

**Q.** And the TGI (SK-MEL-28 melanoma)?
**A.** > 78 µM

From PubChem BioAssay (NCI)
